{"source": "paper PMC11302339", "about": "“A series of pyrimidine-based antifungals with anti-mold activity disrupt ER function in Aspergillus fumigatus” (Microbiology Spectrum, 2024)", "key": {"A. terreus": {"test_system": "A. terreus", "assay": "MIC testing (CLSI broth dilution)", "assay_type": "cell-based, Aspergillus terreus", "method": "(§1) MICs were determined using Clinical and Laboratory Standards Institute guidelines ([48], [49]). All yeasts were cultured overnight in 3 mL YPD at 30°C, then washed twice in sterile phosphate-buffered saline (PBS). Twofold serial dilutions of each drug were prepared in RMPI + MOPS, then 1 × 10^3 cells were added per well. For mold species, wells were inoculated with 1.25 × 10^3 conidia per well. Plates were incubated at 37°C for 24 (Candida spp. and S. cerevisiae), 48 (Aspergillus spp., M. circinelloides, S. apiospermum, and L. prolificans), or 72 (C. neoformans and F. oxysporum) hours. S. cerevisiae BY4743 MICs were tested in YPD due to nutritional requirements of this strain. Each assay was performed in technical duplicate in at least two independent experiments performed on different days."}, "C. auris": {"test_system": "C. auris", "assay": "MIC testing (CLSI broth dilution)", "assay_type": "cell-based, Candida auris", "details": "Candidozyma auris, CLSI conditions", "method": "as §1"}, "S. cerevisiae": {"test_system": "S. cerevisiae", "assay": "MIC testing (broth dilution, YPD)", "assay_type": "cell-based", "details": "Saccharomyces cerevisiae, 24 h", "method": "as §1"}, "A. fumigatus CEA10": {"test_system": "A. fumigatus CEA10", "assay": "ER stress interactions on GMM plates", "assay_type": "cell-based, Aspergillus fumigatus", "details": "1 µg/mL 1 on GMM", "method": "For Aspergillus fumigatus, 5 µL of 1 × 10^4 CEA10 conidia was spotted at the center of GMM plates containing DMSO or 1 µg/mL 1 in combination with DTT, brefeldin A, or tunicamycin. Plates were incubated at 37°C for 72 hours. Representative images of two independent experiments with three biological replicates each were obtained. For Ire1 strains, the cells were prepared as described above but were incubated at 30°C."}, "[1]": {"test_system": "A. fumigatus collagenase secretion", "assay": "Detection of secreted collagenase by azocoll", "assay_type": "cell-based, Aspergillus fumigatus", "method": "1 × 10^6 CEA10 conidia/mL were cultured in 25 mL liquid GMM for 18 hours, then mycelia were washed with sterile ddH2O and transferred to 10% FBS-MM and treated with DMSO or the indicated concentration of drugs. Cultures were incubated at 37°C, 250 rpm, for an additional 24 hours, then the supernatant and biomass were collected. One milliliter of supernatant was spun at top speed for 5 min. Azocoll of <50 mesh (Sigma, Cat # 194932) was washed in buffer (50 mM Tris, pH 7.5, 1 mM NaCl, and 0.01% sodium azide) then resuspended to 5 mg/mL. Fifteen microliters of culture supernatant was added to the 2 mL azocoll solution and incubated at 37°C with shaking at 300 rpm for 3 hours in the dark. Reactions were spun at maximum speed for 3 min; 200 µL of supernatant was then transferred to a 96-well plate; and Abs 520 was measured. Biomass was lyophilized, and absorbance readings were normalized to milligram tissue. Data represent the mean and SEM of biological triplicates with technical duplicates except for compounds 5 and 7, which are biological duplicates due to the limited availability of the drug and the required culture size for this assay."}, "[2]": {"test_system": "C. neoformans MAPK mutants", "assay": "C. neoformans competition assay with MAPK mutants", "assay_type": "cell-based, Cryptococcus neoformans", "details": "1.5 µg/mL 1, 24 hours, 37°C", "method": "H99-mNeon and MAPK mutants (obtained from the C. neoformans kinase deletion collection, FGSC) were grown overnight in YPD at 30°C then washed in PBS. Each strain was counted and diluted into 96-well plates such that each well contained 1 × 10^3 CFU/strain with 1.5 µg/mL 1 or DMSO in 100 µL total volume. Plates were incubated at 37°C for 24 hours before analyzing on an Attune NxT Flow Cytometer with CytKick autosampler and Attune Cytometric software. Gating strategy was optimized for single cells as previously described ([50]). mNeonGreen positive and negative populations were identified by histogram plot with 100,000 cells counted per sample. Data represent mean and SD of biological triplicate and are representative of two independent experiments."}, "sheep red blood cells": {"test_system": "sheep red blood cells", "assay": "Hemolysis assay", "assay_type": "cell-based", "details": "2 hours at RT", "method": "Hemolysis assays were performed with defibrinated sheep’s blood (Lampire, Cat # 7239001). Blood was washed three times with PBS then resuspended to ~50% hematocrit in PBS. Drugs were diluted to generate a twofold dilution series in 200 µL PBS with equal DMSO concentration across the series, then red blood cells were added for a final concentration of 2% hematocrit. Cells were incubated at RT for 2 hours in a v-bottom microtiter plate; then, plates were spun down; and the supernatant was transferred to a flat-bottomed microtiter plate for absorbance measurement at 570 nm. Drugs were tested in technical triplicate in at least two independent assays performed on different lots of blood."}, "A549 cells": {"test_system": "A549 cells", "assay": "Cytotoxicity by LDH release", "assay_type": "cell-based, human", "details": "A549, 24 hours", "method": "(§2) HepG2 [American Type Culture Collection (ATCC), HB-8065], HeLa (ATCC, CCL-2), and A549 (ATCC, CCL-185) cells were maintained and cultured in Dulbecco’s modified Eagle medium (Gibco, Cat # 11965–092) with 10% FBS and 1% penicillin/streptomycin at 37°C with 5% CO2. Cells were seeded in 96-well plates at a density of 1.25 × 10^4 cells/well and incubated overnight at 37°C with 5% CO2; then, media were removed and replaced with media containing a twofold drug dilution series with equal DMSO across all wells. Cells were incubated for an additional 24 hours, then the supernatant was removed and used to quantify lactate dehydrogenase release using the CyQuant LDH assay kit (Invitrogen, Cat # C20300) following the manufacturers’ directions. LDH was normalized to a maximum lysis control treated with Triton-X. HeLa and A549 cells were purchased in 2023, and the cells used for these studies were directly from fresh vials. HepG2 cells for these studies were used from a fresh, low passage (P3) vial saved directly from purchased stocks."}, "HeLa cells": {"test_system": "HeLa cells", "assay": "Cytotoxicity by LDH release", "assay_type": "cell-based, human", "details": "24 hours", "method": "as §2"}, "HepG2 cells": {"test_system": "HepG2 cells", "assay": "Cytotoxicity by LDH release", "assay_type": "cell-based, human", "details": "HepG2, 24 hours", "method": "as §2"}, "[3]": {"assay": "Protein binding analysis, plasma", "assay_type": "in vitro ADME", "details": "mouse, mouse plasma diluted 1:10 with PBS"}, "C. neoformans": {"test_system": "C. neoformans", "assay": "MIC testing in the presence of 10% serum", "assay_type": "cell-based", "method": "as §1"}}, "note": "Read-outs that look alike come from different tables or passages of the source. Marks after values point to notes of the source that are not given here."}
{"compound": "OC1CC(c2cc(N3CCC(CCc4ccccc4)CC3)ncn2)C1", "note": "(centres unmarked) [compound 1]", "values": [{"measurement": "MIC", "setting": "A. terreus; Aspergillus terreus, strain S010, clinical isolate, CLSI conditions", "value": 8, "unit": "µg/mL"}, {"measurement": "Minimum effective concentration (MEC)", "setting": "A. terreus; strain S023, clinical isolate, no clear well, growth reduced by ≥50% at MEC", "value": "16^b µg/mL"}, {"measurement": "MIC", "setting": "C. auris; strain 0390", "value": "> 128", "unit": "µg/mL"}, {"measurement": "MIC", "setting": "C. auris; strain 3081, drug-resistant clinical isolate", "value": 8, "unit": "µg/mL"}, {"measurement": "MIC", "setting": "S. cerevisiae", "value": 8, "unit": "µg/mL"}, {"measurement": "interaction with DTT", "setting": "A. fumigatus CEA10; 37°C, 72 hours", "value": "synergistic"}, {"measurement": "interaction with brefeldin A", "setting": "A. fumigatus CEA10; 37°C, 72 hours", "value": "modest antagonism"}, {"measurement": "interaction with tunicamycin", "setting": "A. fumigatus CEA10; 10 µg/mL tunicamycin", "value": "slight antagonism"}, {"measurement": "interaction with tunicamycin", "setting": "A. fumigatus CEA10; 50 µg/mL tunicamycin", "value": "no interaction"}, {"measurement": "collagenase secretion", "setting": "[1]; 1 µg/mL, 24 hours in 10% FBS-MM", "value": "did not change collagenase secretion"}, {"measurement": "collagenase secretion", "setting": "[1]; 2, 4, 8 and 16 µg/mL, 24 hours in 10% FBS-MM, dose-dependent", "value": "significantly inhibited"}, {"measurement": "collagenase secretion", "setting": "[1]; treated with 1/2 MIC of each compound", "value": "inhibition of collagenase secretion was similar"}, {"measurement": "reduction of mutant in competition with H99-GFP", "setting": "[2]; ∆hog1", "value": 20, "unit": "%"}, {"measurement": "reduction of mutant in competition with H99-GFP", "setting": "[2]; ∆pbs2", "value": 60, "unit": "%"}, {"measurement": "reduction of mutant in competition with H99-GFP", "setting": "[2]; ∆ssk2", "value": 63, "unit": "%"}, {"measurement": "LD50 (hemolysis)", "setting": "sheep red blood cells; 2% hematocrit", "value": 350, "unit": "µg/mL"}, {"measurement": "hemolysis of red blood cells", "setting": "sheep red blood cells; up to 128 µg/mL", "value": "did not observe hemolysis"}, {"measurement": "LD50 (LDH release)", "setting": "A549 cells", "value": 198, "unit": "µg/mL"}, {"measurement": "LD50 (LDH release)", "setting": "HeLa cells", "value": 146, "unit": "µg/mL"}, {"measurement": "LD50 (LDH release)", "setting": "HepG2 cells", "value": 111, "unit": "µg/mL"}, {"measurement": "fraction unbound at 6 h, 5 µM", "setting": "[3]; read-out: Corrected % Protein binding (converted)", "value": 0.0285}, {"measurement": "fraction unbound at 6 h, 5 µM", "setting": "[3]; uncorrected (plasma diluted 1:10), read-out: % Protein binding (converted)", "value": 0.227}, {"measurement": "increase in MIC in the presence of 10% serum", "setting": "C. neoformans", "value": 2, "unit": "fold"}]}
